Experimental findings from PMC7206119, “RIP1 inhibition blocks inflammatory diseases but not tumor growth or metastases” (Cell Death and Differentiation, 2019) are described below.

Holding throughout (assay): biochemical
Common to all, as to design: Thermo Fisher SelectScreen kinase panel: Z'-LYTE and Adapta activity, LanthaScreen binding
For orientation: TR-FRET usually uses a lanthanide donor and a delayed reading to cut background.

One assay concerns the target T1, BRK (Homo sapiens, UniProt Q13882).
T1 construct: gene PTK6
The method in brief:
(§1)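 GNE684 profiled at 10 µM across 221 kinases with Z'-LYTE and Adapta activity and LanthaScreen binding formats. Also screened at 10 µM against 468 kinases in KINOMEscan scanMAX binding assay.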

In another assay the target is T2, CK1_gamma1 (Homo sapiens, UniProt Q9HCP0).
T2 construct: gene CSNK1G1
The method in brief: as §1

The target of another assay is T3, CK1_gamma2 (Homo sapiens, UniProt P78368).
T3 construct: gene CSNK1G2
T3 sequence (P78368 whole entry): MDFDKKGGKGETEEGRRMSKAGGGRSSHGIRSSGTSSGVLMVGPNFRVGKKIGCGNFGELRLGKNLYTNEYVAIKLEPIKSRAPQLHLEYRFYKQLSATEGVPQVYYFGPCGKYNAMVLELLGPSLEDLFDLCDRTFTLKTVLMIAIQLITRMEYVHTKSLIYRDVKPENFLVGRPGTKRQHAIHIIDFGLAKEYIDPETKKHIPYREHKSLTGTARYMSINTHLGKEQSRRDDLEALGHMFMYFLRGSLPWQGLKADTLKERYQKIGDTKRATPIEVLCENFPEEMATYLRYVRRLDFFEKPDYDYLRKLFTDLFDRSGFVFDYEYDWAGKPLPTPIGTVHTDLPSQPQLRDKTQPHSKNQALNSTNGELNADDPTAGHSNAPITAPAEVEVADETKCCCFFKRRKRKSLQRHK
The method in brief:
as §1

For a further assay, the target named is CLK4 (Homo sapiens, UniProt Q9HAZ1). The method in brief: as §1
Another assay deals with FES (Homo sapiens, UniProt P07332). The method, boiled down:
as §1

A further assay deals with FGFR4 (Homo sapiens, UniProt P22455). The method, boiled down: as §1
The target in the next assay is HCK (Homo sapiens, UniProt P08631). The method, boiled down: as §1
A further assay deals with T4, IKK-beta (Homo sapiens, UniProt O14920).
T4 construct: gene IKBKB
The method, boiled down: as §1

The next assay concerns the target JAK2 (Homo sapiens, UniProt O60674). The method in brief:
as §1

Another assay has as its target T5, MEKK2 (Homo sapiens, UniProt Q9Y2U5).
T5 construct: gene MAP3K2
The method, boiled down: as §1

Another assay concerns the target MELK (Homo sapiens, UniProt Q14680). The method in brief:
as §1

In another assay the target is T6, MSK1 (Homo sapiens, UniProt O75582).
T6 construct: gene RPS6KA5
The method, boiled down: as §1

The target in the next assay is T7, MSSK1 (Homo sapiens, UniProt Q9UPE1).
T7 construct: gene SRPK3
T7 sequence (Q9UPE1 whole entry): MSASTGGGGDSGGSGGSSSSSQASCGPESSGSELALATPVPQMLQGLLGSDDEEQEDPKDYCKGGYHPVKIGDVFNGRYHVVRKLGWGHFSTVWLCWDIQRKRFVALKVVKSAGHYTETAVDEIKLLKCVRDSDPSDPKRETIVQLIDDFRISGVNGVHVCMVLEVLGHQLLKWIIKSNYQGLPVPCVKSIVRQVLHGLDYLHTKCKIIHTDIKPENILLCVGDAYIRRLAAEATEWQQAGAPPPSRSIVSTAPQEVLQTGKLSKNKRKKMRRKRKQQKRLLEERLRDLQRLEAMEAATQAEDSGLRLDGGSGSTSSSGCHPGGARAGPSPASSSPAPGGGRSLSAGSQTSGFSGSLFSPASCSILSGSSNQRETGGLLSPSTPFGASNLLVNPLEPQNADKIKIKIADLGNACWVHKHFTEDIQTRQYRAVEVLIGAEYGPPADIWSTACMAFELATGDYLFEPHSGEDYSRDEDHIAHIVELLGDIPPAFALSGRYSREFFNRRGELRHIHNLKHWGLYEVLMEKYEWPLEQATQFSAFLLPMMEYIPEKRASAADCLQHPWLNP
The method, boiled down: as §1

The target in a further assay is T8, MST3 (Homo sapiens, UniProt Q9Y6E0).
T8 construct: gene STK24
T8 sequence (Q9Y6E0 whole entry): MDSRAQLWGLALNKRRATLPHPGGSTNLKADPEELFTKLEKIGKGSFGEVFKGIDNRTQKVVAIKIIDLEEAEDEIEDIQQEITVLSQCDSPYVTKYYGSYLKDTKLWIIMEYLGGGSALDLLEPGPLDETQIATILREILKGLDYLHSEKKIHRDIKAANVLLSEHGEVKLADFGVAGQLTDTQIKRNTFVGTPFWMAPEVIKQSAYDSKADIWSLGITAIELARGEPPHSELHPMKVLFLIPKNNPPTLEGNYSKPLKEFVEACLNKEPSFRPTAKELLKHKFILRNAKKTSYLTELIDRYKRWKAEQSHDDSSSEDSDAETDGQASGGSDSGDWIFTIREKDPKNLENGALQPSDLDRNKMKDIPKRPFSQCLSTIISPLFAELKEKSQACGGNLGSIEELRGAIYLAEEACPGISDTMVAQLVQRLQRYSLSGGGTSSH
The method in brief: as §1

The target of a further assay is T9, PKC_alpha (Homo sapiens, UniProt P17252).
T9 construct: gene PRKCA
The method in brief: as §1

A further assay concerns the target PLK1 (Homo sapiens, UniProt P53350). The method in brief: as §1
Another assay deals with T10, PRAK (Homo sapiens, UniProt Q8IW41).
T10 construct: gene MAPKAPK5
The method, boiled down:
as §1

Another assay addresses ROCK2 (Homo sapiens, UniProt O75116). The method, boiled down:
as §1

For a further assay, the target named is T11, Ron (Homo sapiens, UniProt Q04912).
T11 construct: gene MST1R
The method in brief: as §1

The target in a further assay is T12, TRKA (Homo sapiens, UniProt P04629).
T12 construct: gene NTRK1
T12 sequence (P04629 whole entry): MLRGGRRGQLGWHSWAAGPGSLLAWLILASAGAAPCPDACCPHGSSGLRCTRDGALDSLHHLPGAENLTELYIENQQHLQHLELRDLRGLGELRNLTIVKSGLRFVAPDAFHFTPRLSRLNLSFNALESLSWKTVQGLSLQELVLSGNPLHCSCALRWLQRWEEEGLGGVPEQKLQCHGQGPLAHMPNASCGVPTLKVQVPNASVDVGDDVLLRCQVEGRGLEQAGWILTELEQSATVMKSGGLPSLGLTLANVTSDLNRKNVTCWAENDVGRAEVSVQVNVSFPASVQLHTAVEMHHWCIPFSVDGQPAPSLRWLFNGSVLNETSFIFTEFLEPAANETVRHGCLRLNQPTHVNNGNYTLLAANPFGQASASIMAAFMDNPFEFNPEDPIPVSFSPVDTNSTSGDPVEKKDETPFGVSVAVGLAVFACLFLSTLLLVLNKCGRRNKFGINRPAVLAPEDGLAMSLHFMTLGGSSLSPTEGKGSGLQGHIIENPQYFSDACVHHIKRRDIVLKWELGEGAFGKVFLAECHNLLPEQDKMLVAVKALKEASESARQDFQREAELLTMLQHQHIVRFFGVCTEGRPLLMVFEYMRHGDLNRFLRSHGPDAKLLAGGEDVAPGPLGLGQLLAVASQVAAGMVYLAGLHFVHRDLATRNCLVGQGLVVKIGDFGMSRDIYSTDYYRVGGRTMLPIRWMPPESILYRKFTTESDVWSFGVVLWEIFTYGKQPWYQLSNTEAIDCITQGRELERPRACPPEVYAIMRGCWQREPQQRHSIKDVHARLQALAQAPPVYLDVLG
The method, boiled down:
as §1

For the next assay, the target named is T13, Tpl2 (Homo sapiens, UniProt P41279).
T13 construct: gene MAP3K8
The method, boiled down: as §1

The target of the next assay is T14, YSK1 (Homo sapiens, UniProt O00506).
T14 construct: gene STK25
T14 sequence (O00506 whole entry): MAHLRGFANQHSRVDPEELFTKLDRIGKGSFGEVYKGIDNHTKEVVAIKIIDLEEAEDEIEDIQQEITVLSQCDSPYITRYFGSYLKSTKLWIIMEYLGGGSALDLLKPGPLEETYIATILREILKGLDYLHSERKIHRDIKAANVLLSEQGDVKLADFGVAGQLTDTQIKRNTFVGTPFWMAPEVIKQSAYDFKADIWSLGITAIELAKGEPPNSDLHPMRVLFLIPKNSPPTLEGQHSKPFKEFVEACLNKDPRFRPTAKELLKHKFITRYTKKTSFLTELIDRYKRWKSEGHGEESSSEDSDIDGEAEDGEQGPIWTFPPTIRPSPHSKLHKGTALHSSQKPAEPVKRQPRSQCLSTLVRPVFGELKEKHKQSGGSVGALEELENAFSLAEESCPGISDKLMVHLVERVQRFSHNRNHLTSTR
The method in brief:
as §1

The next assay concerns the target T15, p70S6K (Homo sapiens, UniProt P23443).
T15 construct: gene RPS6KB1
The method in brief: as §1

Chain of FES (P07332 whole entry): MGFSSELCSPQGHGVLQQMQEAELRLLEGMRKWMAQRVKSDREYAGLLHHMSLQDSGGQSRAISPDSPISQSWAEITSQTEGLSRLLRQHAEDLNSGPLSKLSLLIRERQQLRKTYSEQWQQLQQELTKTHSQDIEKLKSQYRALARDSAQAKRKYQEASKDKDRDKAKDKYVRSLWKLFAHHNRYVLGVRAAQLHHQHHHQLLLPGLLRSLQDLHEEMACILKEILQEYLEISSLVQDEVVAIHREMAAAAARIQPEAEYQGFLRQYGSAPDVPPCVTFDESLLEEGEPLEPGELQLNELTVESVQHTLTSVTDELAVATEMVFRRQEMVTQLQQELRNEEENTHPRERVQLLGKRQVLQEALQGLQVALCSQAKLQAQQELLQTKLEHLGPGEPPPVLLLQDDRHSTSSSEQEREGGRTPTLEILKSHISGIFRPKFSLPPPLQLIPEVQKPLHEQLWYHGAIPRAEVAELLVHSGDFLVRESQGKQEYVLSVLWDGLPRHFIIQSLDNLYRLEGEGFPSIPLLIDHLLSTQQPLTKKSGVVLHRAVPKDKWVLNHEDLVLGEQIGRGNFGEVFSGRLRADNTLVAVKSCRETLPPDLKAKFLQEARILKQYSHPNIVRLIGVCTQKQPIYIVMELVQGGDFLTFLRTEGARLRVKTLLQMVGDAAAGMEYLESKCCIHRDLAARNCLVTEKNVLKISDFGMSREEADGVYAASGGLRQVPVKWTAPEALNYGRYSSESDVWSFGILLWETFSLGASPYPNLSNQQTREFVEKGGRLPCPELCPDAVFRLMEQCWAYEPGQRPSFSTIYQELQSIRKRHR
T5 sequence (Q9Y2U5 whole entry): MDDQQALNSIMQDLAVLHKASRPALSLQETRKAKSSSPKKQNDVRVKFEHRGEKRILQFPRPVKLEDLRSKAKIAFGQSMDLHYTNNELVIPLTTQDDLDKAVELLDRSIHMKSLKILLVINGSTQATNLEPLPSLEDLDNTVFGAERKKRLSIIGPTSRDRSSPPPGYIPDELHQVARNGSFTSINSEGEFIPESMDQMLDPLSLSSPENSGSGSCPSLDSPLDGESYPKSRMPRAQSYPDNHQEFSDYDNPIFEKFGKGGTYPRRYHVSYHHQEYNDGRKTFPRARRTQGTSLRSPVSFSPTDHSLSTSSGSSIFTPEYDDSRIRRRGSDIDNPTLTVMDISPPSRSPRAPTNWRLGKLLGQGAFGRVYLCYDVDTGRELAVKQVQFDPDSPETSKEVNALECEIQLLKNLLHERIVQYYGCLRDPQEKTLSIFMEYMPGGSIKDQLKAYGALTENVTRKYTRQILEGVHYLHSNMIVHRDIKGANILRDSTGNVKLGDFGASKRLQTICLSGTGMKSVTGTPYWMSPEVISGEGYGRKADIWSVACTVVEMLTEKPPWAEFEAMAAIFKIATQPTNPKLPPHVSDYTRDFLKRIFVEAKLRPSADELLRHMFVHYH

In the case of `COc1cc2c(cn1)N(C)C(=O)[C@@H](NC(=O)c1nc3n(n1)[C@H](c1ccccc1)CC3)CC2` [GNE684, (S)-N-((S)-7-methoxy-1-methyl-2-oxo-2,3,4,5-tetrahydro-1H-pyrido[3,4-b]azepin-3-yl)-5-phenyl-6,7-dihydro-5H-pyrrolo[1,2-b][1,2,4]triazole-2-carboxamide], the inhibition at 10 µM at BRK was -1%; at CK1_gamma1, 4%; at CK1_gamma2 it was 2%; on CLK4, 2.5%; at FES, 3%; on FGFR4, -6.5%. Besides, the inhibition at 10 µM at HCK was 5%; on IKK-beta, 8.5%; at JAK2 it was 2.5%; on MEKK2, 7%; on MELK it was 13%; at MSK1 it was -4%. The inhibition at 10 µM on MSSK1 was 2.5%; at MST3, 4%; on PKC_alpha it was 3%; at PLK1, 4%; at PRAK it was 2.5%; on ROCK2, 1.5%. The inhibition at 10 µM at Ron was 4.5%; at TRKA it was -3%; on Tpl2, 7%; at YSK1, 3.5%; on p70S6K it was 10%.

For orientation: inhibition means the change of the read-out against control, counted positive when it falls.
